From ChEMBL document CHEMBL1130603, “Studies on the C-terminal of hexapeptide inhibitors of the hepatitis C virus serine protease” (Bioorg Med Chem Lett, 1998)
Square brackets hold non-standard residues; d marks the D form. Peptide text beside a SMILES is read from it. * marks the point of attachment. Nle = CCCC[C@H](N)C(=O)O; Nva = CCC[C@H](N)C(=O)O; Abu = CC[C@H](N)C(=O)O; CF3 = FC(F)(F)*

How the values were obtained:
[1] = Compound was tested for inhibition of bovine pancreatic alpha-chymotrypsin; design: species or system Bos taurus
Cathepsin B = Cathepsin B (Homo sapiens, UniProt P07858); assay: Compound was tested for inhibition of human liver Cathepsin B
Pancreatic elastase = Pancreatic elastase (Sus scrofa, UniProt P08419+P00772); assay: Compound was tested for inhibition of porcine pancreatic elastase (PPE); type: protein assay
Neutrophil elastase = target: T1, Neutrophil elastase (Homo sapiens, UniProt P08246); assay: Compound was tested for inhibition of human leucocyte elastase (HLE)
T1 sequence (P08246 whole entry): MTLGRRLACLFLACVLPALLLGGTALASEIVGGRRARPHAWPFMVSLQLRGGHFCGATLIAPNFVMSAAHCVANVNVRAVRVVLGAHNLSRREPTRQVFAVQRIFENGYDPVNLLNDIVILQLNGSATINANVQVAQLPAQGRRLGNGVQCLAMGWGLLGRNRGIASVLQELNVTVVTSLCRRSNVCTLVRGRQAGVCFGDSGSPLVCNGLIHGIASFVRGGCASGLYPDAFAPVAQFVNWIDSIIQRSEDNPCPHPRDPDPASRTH

[2] = target: T2, Hepatitis C virus serine protease, NS3/NS4A (Hepatitis C virus, UniProt D2K2A8+A3EZI9); assay: (§1) Inhibition of hepatitis C virus (HCV) NS3 protease.; type: protein-complex assay, Hepacivirus hominis
[3] = target: Hepatitis C virus serine protease, NS3/NS4A (Hepatitis C virus, UniProt A3EZI9+D2K2A8); assay: as §1; type: protein-complex assay, Hepacivirus hominis
[4] = target: T2, Hepatitis C virus serine protease, NS3/NS4A; assay: Compound was tested for competitive inhibition of hepatitis C virus (HCV) serine protease; type: protein-complex assay, Hepacivirus hominis

IC50 [1] [µM] | IC50 (Cathepsin B) [µM] | IC50 (Pancreatic elastase) [µM] | IC50 (Neutrophil elastase) [µM] | IC50 [3] [µM] | further results | Molecule
29 | > 1000 | > 1000 | > 1000 | – | IC50 [2]: 9.3 µM | CCC[C@@H](NC(=O)[C@@H]1CCCN1C(=O)[C@@H](NC(=O)[C@@H](NC(=O)[C@@H](CC(=O)O)NC(=O)[C@H](CC(=O)O)NC(C)=O)[C@@H](C)CC)C(C)C)C(=O)OCc1ccccc1
– | – | – | – | – | IC50 [2]: 160 µM | CCC[C@@H](NC(=O)[C@@H]1CCCN1C(=O)[C@@H](NC(=O)[C@@H](NC(=O)[C@@H](CC(=O)O)NC(=O)[C@H](CC(=O)O)NC(C)=O)[C@@H](C)CC)C(C)C)C(=O)NC
– | – | – | – | – | IC50 [2]: > 1000 µM | CCC[C@@H](NC(=O)[C@@H]1CCCN1C(=O)[C@@H](NC(=O)[C@@H](NC(=O)[C@@H](CC(=O)O)NC(=O)[C@H](CC(=O)O)NC(C)=O)[C@@H](C)CC)C(C)C)C(N)=O
– | – | – | – | – | IC50 [2]: 17 µM | CCC[C@@H](NC(=O)[C@@H]1CCCN1C(=O)[C@@H](NC(=O)[C@@H](NC(=O)[C@@H](CC(=O)O)NC(=O)[C@H](CC(=O)O)NC(C)=O)[C@@H](C)CC)C(C)C)C(=O)OC
– | – | – | – | 280 | – | CCC[C@H](CO)NC(=O)[C@@H]1CCCN1C(=O)[C@@H](NC(=O)[C@@H](NC(=O)[C@@H](CC(=O)O)NC(=O)[C@H](CC(=O)O)NC(C)=O)[C@@H](C)CC)C(C)C
– | – | – | – | 780 | – | CC[C@H](C)[C@H](NC(=O)[C@@H]1CCCN1C(=O)[C@@H](NC(=O)[C@@H](NC(=O)[C@H](CC(=O)O)NC(=O)[C@H](CC(=O)O)NC(C)=O)[C@@H](C)CC)C(C)C)C(=O)O
10 | 100 | < 0.06 | 0.03 | 2 | – | CCC[C@H](NC(=O)[C@@H]1CCCN1C(=O)[C@@H](NC(=O)[C@@H](NC(=O)[C@H](CC(=O)O)NC(=O)[C@H](CC(=O)O)NC(C)=O)[C@@H](C)CC)C(C)C)C(=O)C(=O)NCc1ccccc1
30 | 172 | < 0.06 | 0.1 | 0.64 | – | CCC[C@H](NC(=O)[C@@H]1CCCN1C(=O)[C@@H](NC(=O)[C@@H](NC(=O)[C@@H](CC(=O)O)NC(=O)[C@H](CC(=O)O)NC(C)=O)[C@@H](C)CC)C(C)C)C(=O)C(=O)NCc1ccccc1
– | – | – | – | 190 | – | CC[C@@H](C)[C@H](NC(=O)[C@@H]1CCCN1C(=O)[C@@H](NC(=O)[C@@H](NC(=O)[C@H](CC(=O)O)NC(=O)[C@H](CC(=O)O)NC(C)=O)[C@@H](C)CC)C(C)C)C(=O)O
> 1000 | > 1000 | 206 | 120 | – | IC50 [2]: 52 µM | CCC[C@@H](NC(=O)[C@@H]1CCCN1C(=O)[C@@H](NC(=O)[C@@H](NC(=O)[C@@H](CC(=O)O)NC(=O)[C@H](CC(=O)O)NC(C)=O)[C@@H](C)CC)C(C)C)C(=O)NCc1ccccc1
– | – | – | – | 79 | – | CCC[C@H](NC(=O)[C@@H]1CCCN1C(=O)[C@@H](NC(=O)[C@@H](NC(=O)[C@H](CC(=O)O)NC(=O)[C@H](CC(=O)O)NC(C)=O)[C@@H](C)CC)C(C)C)C(=O)C(F)(F)C(F)(F)F
18 | 416 | < 0.06 | 0.06 | 12 | – | CCC[C@H](NC(=O)[C@@H]1CCCN1C(=O)[C@@H](NC(=O)[C@@H](NC(=O)[C@@H](CC(=O)O)NC(=O)[C@H](CC(=O)O)NC(C)=O)[C@@H](C)CC)C(C)C)C(=O)C(F)(F)C(F)(F)F
> 900 | 9.5 | 2.2 | 6.7 | 1.1 | – | CCC[C@@H](C=O)NC(=O)[C@@H]1CCCN1C(=O)[C@@H](NC(=O)[C@@H](NC(=O)[C@@H](CC(=O)O)NC(=O)[C@H](CC(=O)O)NC(C)=O)[C@@H](C)CC)C(C)C
– | – | – | – | 10 | – | CCC[C@@H](C=O)NC(=O)[C@@H]1CCCN1C(=O)[C@@H](NC(=O)[C@@H](NC(=O)[C@H](CC(=O)O)NC(=O)[C@H](CC(=O)O)NC(C)=O)[C@@H](C)CC)C(C)C
– | – | – | – | 28 | – | CC[C@H](C)[C@H](NC(=O)[C@H](CC(=O)O)NC(=O)[C@H](CC(=O)O)NC(C)=O)C(=O)N[C@H](C(=O)N1CCC[C@H]1C(=O)N[C@@H](CS)C(=O)O)C(C)C
– | – | – | – | – | Ki [4]: 0.6 µM | CC[C@H](C)[C@H](NC(=O)[C@@H](CC(=O)O)NC(=O)[C@H](CC(=O)O)NC(C)=O)C(=O)N[C@H](C(=O)N1CCC[C@@H]1C(=O)N[C@@H](CS)C(=O)O)C(C)C
– | – | – | – | 250 | – | CC[C@H](NC(=O)[C@@H]1CCCN1C(=O)[C@@H](NC(=O)[C@@H](NC(=O)[C@H](CC(=O)O)NC(=O)[C@H](CC(=O)O)NC(C)=O)[C@@H](C)CC)C(C)C)C(=O)O (Ac-DDIVP[Abu]-OH)
– | – | – | – | 500 | – | CCCC[C@H](NC(=O)[C@@H]1CCCN1C(=O)[C@@H](NC(=O)[C@@H](NC(=O)[C@H](CC(=O)O)NC(=O)[C@H](CC(=O)O)NC(C)=O)[C@@H](C)CC)C(C)C)C(=O)O (Ac-DDIVP[Nle]-OH)
– | – | – | – | 160 | – | CCC[C@H](NC(=O)[C@@H]1CCCN1C(=O)[C@@H](NC(=O)[C@@H](NC(=O)[C@H](CC(=O)O)NC(=O)[C@H](CC(=O)O)NC(C)=O)[C@@H](C)CC)C(C)C)C(=O)C(F)(F)F (Ac-DDIVP[Nva]-CF3)
– | – | – | – | 150 | – | CCC[C@H](NC(=O)[C@@H]1CCCN1C(=O)[C@@H](NC(=O)[C@@H](NC(=O)[C@H](CC(=O)O)NC(=O)[C@H](CC(=O)O)NC(C)=O)[C@@H](C)CC)C(C)C)C(=O)O (Ac-DDIVP[Nva]-OH)
4.5 | > 900 | 0.19 | < 0.06 | 22 | – | CCC[C@H](NC(=O)[C@@H]1CCCN1C(=O)[C@@H](NC(=O)[C@@H](NC(=O)[C@@H](CC(=O)O)NC(=O)[C@H](CC(=O)O)NC(C)=O)[C@@H](C)CC)C(C)C)C(=O)C(F)(F)F (Ac-D[dD]IVP[Nva]-CF3)
> 1000 | > 1000 | > 1000 | > 1000 | 17 | – | CCC[C@H](NC(=O)[C@@H]1CCCN1C(=O)[C@@H](NC(=O)[C@@H](NC(=O)[C@@H](CC(=O)O)NC(=O)[C@H](CC(=O)O)NC(C)=O)[C@@H](C)CC)C(C)C)C(=O)O (Ac-D[dD]IVP[Nva]-OH)
– | – | – | – | 750 | – | Ac-DDIVPA-OH
– | – | – | – | 800 | – | Ac-DDIVPL-OH
